According to PMC11870023, “A facile assay for zDHHC palmitoyl transferase activation elucidates effects of mutation and modification” (Journal of Lipid Research, 2025):

Assays:
Experiment in all cases: auto-S-palmitoylation of HEK293 membranes, SDS-PAGE fluorescence normalised to tag Western blot
human zDHHC7 [1] = molecular target: T1, human zDHHC7 (Homo sapiens, UniProt Q9NXF8); type: cell-based; details: pH 7.4, 37 °C, 2 min; labelled compound; covalent thioester at active-site Cys
T1 construct: full length, His6-Myc tag kept (pCEpuro-His6-Myc-1), HEK293 membrane fraction
T1 sequence (Q9NXF8 1-308): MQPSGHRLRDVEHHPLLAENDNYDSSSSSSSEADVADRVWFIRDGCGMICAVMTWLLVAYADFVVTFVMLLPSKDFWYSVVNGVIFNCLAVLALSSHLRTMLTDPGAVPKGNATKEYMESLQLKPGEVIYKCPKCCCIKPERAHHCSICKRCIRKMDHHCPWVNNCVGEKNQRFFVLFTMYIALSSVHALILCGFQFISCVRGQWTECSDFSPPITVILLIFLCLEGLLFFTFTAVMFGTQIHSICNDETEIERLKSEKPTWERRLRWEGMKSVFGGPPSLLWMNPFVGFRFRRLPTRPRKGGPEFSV

human zDHHC14 = molecular target: T2, human zDHHC14 (Homo sapiens, UniProt Q8IZN3, C181Y); type: biochemical; details: pH 7.4, 37 °C, 2 min; labelled compound; covalent thioester at active-site Cys
T2 construct: full length, His6-Myc tag kept (pCEpuro-His6-Myc-1), HEK293 membrane fraction
T2 sequence (Q8IZN3 1-488 C181Y): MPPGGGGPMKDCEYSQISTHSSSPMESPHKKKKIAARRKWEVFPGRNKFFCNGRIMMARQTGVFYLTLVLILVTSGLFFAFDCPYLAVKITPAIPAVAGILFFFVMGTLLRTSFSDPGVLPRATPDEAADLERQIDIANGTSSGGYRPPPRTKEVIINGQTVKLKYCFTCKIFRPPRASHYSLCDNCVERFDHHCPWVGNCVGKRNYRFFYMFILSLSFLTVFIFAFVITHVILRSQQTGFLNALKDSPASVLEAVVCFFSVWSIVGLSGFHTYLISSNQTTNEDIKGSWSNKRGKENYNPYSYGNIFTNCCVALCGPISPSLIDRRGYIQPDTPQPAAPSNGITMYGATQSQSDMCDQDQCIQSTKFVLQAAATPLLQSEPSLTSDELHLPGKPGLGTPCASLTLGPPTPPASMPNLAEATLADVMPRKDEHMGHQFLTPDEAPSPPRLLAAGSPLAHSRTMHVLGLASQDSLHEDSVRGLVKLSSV

human zDHHC7 [2] = molecular target: T1, human zDHHC7; type: cell-based; details: pH 7.4, 37 °C, 2 min; labelled compound; covalent thioester at active-site Cys; remark: listed apart in the source
Excerpt: auto-S-palmitoylation of HEK293 membranes, SDS-PAGE fluorescence normalised to tag Western blot on human zDHHC7 | N44D mutation within the N-terminal cytoplasmic tail of zDHHC7 (Fig. 4A) had no effect

mouse zDHHC11 = tested on: T3, mouse zDHHC11; type: cell-based; details: pH 7.4, 37 °C; labelled compound; covalent thioester at active-site Cys
T3 construct: full length, HA tag kept (pEF-Bos-HA), HEK293 membrane fraction; the source plasmid set's older numbering used DHHC-11 for Zdhhc23, so the gene is not certain

Q: `CC(C)(COP(=O)(O)OP(=O)(O)OC[C@H]1O[C@@H](n2cnc3c(N)ncnc32)[C@H](O)[C@@H]1OP(=O)(O)O)[C@@H](O)C(=O)NCCC(=O)NCCSC(=O)CCCCCCCCCCCCCCCNc1ccc([N+](=O)[O-])c2nonc12` [NBD-palmitoyl-CoA, N-[(7-nitro-2-1,3-benzoxadiazol-4-yl)-methyl]amino palmitoyl] was tested. Which Km (human zDHHC7 [1]) did it give?
A: 3.4 ± 0.57 µM

Q: What about the “auto-S-palmitoylation of HEK293 membranes, SDS-PAGE fluorescence normalised to t” value (human zDHHC14) of the same compound?
A: C→Y mutation of Cys181 within the second zinc finger domain (Fig. 4A) eliminated auto-S-palmitoylation

Q: And the Km (human zDHHC7 [2])?
A: 2.85 ± 0.72 µM

Q: And the Km (mouse zDHHC11)?
A: 0.89 ± 0.23 µM
